Results published in patent US10266513B2 (Pfizer Inc., priority 2012, dated 2019).

target: human full-length BTK Kinase (Homo sapiens (Human), UniProt Q06187); assay: Human BTK LanthaScreen Assay (TR-FRET); type: biochemical; conditions: 50 μM ATP, FAM-Srctide peptide substrate, read-out: BTK Inhibition IC50
Excerpt: Human BTK LanthaScreen Assay

Chain of human full-length BTK Kinase (Q06187 whole entry): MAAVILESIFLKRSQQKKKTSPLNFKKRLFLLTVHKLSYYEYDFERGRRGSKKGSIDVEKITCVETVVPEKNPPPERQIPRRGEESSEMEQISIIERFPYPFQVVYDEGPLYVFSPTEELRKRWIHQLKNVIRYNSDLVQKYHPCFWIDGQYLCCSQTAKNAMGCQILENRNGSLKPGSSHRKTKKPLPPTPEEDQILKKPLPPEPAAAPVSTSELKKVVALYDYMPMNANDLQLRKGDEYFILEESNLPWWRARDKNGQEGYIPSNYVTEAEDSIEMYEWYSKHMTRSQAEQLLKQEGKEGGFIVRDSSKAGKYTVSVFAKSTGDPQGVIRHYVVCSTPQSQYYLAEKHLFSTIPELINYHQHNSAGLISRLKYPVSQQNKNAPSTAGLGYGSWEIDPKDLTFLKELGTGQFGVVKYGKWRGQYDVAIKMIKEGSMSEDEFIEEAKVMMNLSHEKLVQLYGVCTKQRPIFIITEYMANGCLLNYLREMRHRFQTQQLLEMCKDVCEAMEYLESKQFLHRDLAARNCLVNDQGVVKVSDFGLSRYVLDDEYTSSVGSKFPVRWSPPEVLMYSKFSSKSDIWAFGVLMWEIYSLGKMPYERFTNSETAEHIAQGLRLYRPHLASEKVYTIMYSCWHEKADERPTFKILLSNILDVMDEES

SMILES | IC50 [nM]
NC(=O)c1c(-c2ccc(Oc3ccc(Cl)cn3)cc2)nn(C2CCCN(C(=O)/C=C/CF)C2)c1N (centres unmarked) [Example 160] | 5.5
NC(=O)c1c(-c2ccc(Oc3cccc(C(F)(F)F)n3)cc2)nn([C@@H]2CCCN(C(=O)/C=C/C(F)F)C2)c1N [Example 163, 5-amino-1-{(3R)-1-[(2E)-4,4-difluorobut-2-enoyl]piperidin-3-yl}-3-(4-{[6-(trifluoromethyl)pyridin-2-yl]oxy}phenyl)-1H-pyrazole-4-carboxamide] | 1.3
C=CC(=O)N1CCC[C@@H](n2nc(-c3ccc(Oc4ncc(Cl)cc4F)cc3)c(C(N)=O)c2N)C1 [Example 153, 1-[(3R)-1-acryloylpiperidin-3-yl]-5-amino-3-{4-[(5-chloro-3-fluoropyridin-2-yl)oxy]phenyl}-1H-pyrazole-4-carboxamide] | 0.48
Cc1ccc(Oc2ccc(-c3nn(C4CCCN(C#N)C4)c(N)c3C(N)=O)cc2)c(C)c1 (centres unmarked) [Example 23, 5-amino-1-(1-cyanopiperidin-3-yl)-3-[4-(2,4-dimethylphenoxy)phenyl]-1H-pyrazole-4-carboxamide] | 9.2
N#CN1CCCC(n2nc(-c3ccc(Oc4cccc(Cl)c4F)cc3)c(C(N)=O)c2N)C1 (centres unmarked) [Example 57, 5-amino-3-[4-(3-chloro-2-fluoro-phenoxy)phenyl]-1-(1-cyanopiperidin-3-yl)-1H-pyrazole-4-carboxamide] | 3.1
CC/C=C/C(=O)N1CCC[C@@H](n2nc(-c3ccc(Oc4ccc(F)cc4F)cc3)c(C(N)=O)c2N)C1 [Example 143, 5-amino-3-[4-(2,4-difluorophenoxy)phenyl]-1-{(3R)-1-[(2E)-pent-2-enoyl]piperidin-3-yl}-1H-pyrazole-4-carboxamide] | 125
Cc1cc(F)ccc1Oc1ccc(-c2nn(C3CCCN(C#N)C3)c(N)c2C(N)=O)cc1 (centres unmarked) [Example 32, 5-amino-1-(1-cyanopiperidin-3-yl)-3-[4-(4-fluoro-2-methylphenoxy)phenyl]-1H-pyrazole-4-carboxamide] | 4.1
N#CN1CCCC(n2nc(-c3ccc(Cc4ccc(F)cc4F)cc3)c(C(N)=O)c2N)C1 (single isomer, unassigned) [Example 82] | 126
NC(=O)c1c(-c2ccc(Oc3ncc(Cl)cc3F)cc2)nn([C@@H]2CCCN(C(=O)/C=C/CO)C2)c1N [Example 154, 5-amino-3-{4-[(5-chloro-3-fluoropyridin-2-yl)oxy]phenyl}-1-{(3R)-1-[(2E)-4-hydroxybut-2-enoyl]piperidin-3-yl}-1H-pyrazole-4-carboxamide] | 49
N#CN1CCCC(n2nc(-c3ccc(Oc4ccccc4)nc3)c(C(N)=O)c2N)C1 (centres unmarked) [Example 107, 5-amino-1-(1-cyanopiperidin-3-yl)-3-(6-phenoxypyridin-3-yl)-1H-pyrazole-4-carboxamide] | 171
N#CN1CCCC(n2nc(-c3ccc(Oc4ccccc4OC(F)(F)F)cc3)c(C(N)=O)c2N)C1 (centres unmarked) [Example 62, 5-amino-1-(1-cyanopiperidin-3-yl)-3-{4-[2-(trifluoromethoxy)phenoxy]phenyl}-1H-pyrazole-4-carboxamide] | 3.3
N#C/C=C/C(=O)N1CCC[C@@H](n2nc(-c3ccc(Oc4cccc(C(F)(F)F)n4)cc3)c(C(N)=O)c2N)C1 [Example 166, 5-amino-1-{(3R)-1-[(2E)-3-cyanoprop-2-enoyl]piperidin-3-yl}-3-(4-{[6-(trifluoromethyl)pyridin-2-yl]oxy}phenyl)-1H-pyrazole-4-carboxamide] | 2.2
N#CN1CCCC(n2nc(-c3ccc(Oc4ccc(F)c(C(F)(F)F)c4)cc3)c(C(N)=O)c2N)C1 (centres unmarked) [Example 64, 5-amino-1-(1-cyanopiperidin-3-yl)-3-{4-[4-fluoro-3-(trifluoromethyl)phenoxy]phenyl}-1H-pyrazole-4-carboxamide] | 8.7
N#CN1CCCC(n2nc(-c3ccc(Oc4cc(F)cc(Cl)c4)cc3)c(C(N)=O)c2N)C1 (centres unmarked) [Example 51, 5-amino-3-[4-(3-chloro-5-fluoro-phenoxy)phenyl]-1-(1-cyanopiperidin-3-yl)-1H-pyrazole-4-carboxamide] | 1.9
N#CN1CCCC(n2nc(-c3ccc(Oc4ccc(F)cc4Cl)cc3)c(C(N)=O)c2N)C1 (single isomer, unassigned) [Example 37] | 0.79
Cc1cc(Oc2ccc(-c3nn(C4CCCN(C#N)C4)c(N)c3C(N)=O)cc2)ccc1F (centres unmarked) [Example 31, 5-amino-1-(1-cyanopiperidin-3-yl)-3-[4-(4-fluoro-3-methylphenoxy)phenyl]-1H-pyrazole-4-carboxamide] | 2.8
NC(=O)c1c(-c2ccc(Oc3ccc(F)cc3F)cc2)nn([C@@H]2CCCN(C(=O)/C=C/C(F)F)C2)c1N [Example 144, 5-amino-1-{(3R)-1-[(2E)-4,4-difluorobut-2-enoyl]piperidin-3-yl}-3-[4-(2,4-difluorophenoxy)phenyl]-1H-pyrazole-4-carboxamide] | 0.41
COc1cc(F)ccc1Oc1ccc(-c2nn(C3CCCN(C#N)C3)c(N)c2C(N)=O)cc1 (centres unmarked) [Example 47, 5-amino-1-(1-cyanopiperidin-3-yl)-3-{4-[4-fluoro-2-methoxyphenoxy]phenyl}-1H-pyrazole-4-carboxamide] | 1.6
N#CN1CCCC(n2nc(-c3cccc(Oc4ccccc4)c3)c(C(N)=O)c2N)C1 (single isomer, unassigned) [Example 90] | 3.2
Cc1cc(F)ccc1Oc1ccc(-c2nn(C3CCCN(C#N)C3)c(N)c2C(N)=O)cc1 (single isomer, unassigned) [Example 33] | 24.1
N#CN1CCCC(n2nc(-c3ccc(Oc4ccc(F)cc4F)cc3)c(C(N)=O)c2N)C1 (centres unmarked) [Example 25, 5-amino-1-(1-cyanopiperidin-3-yl)-3-[4-(2,4-difluorophenoxy)phenyl]-1H-pyrazole-4-carboxamide] | 2.18
N#CN1CCCC(n2nc(-c3ccc(Cc4cccc(F)c4)cc3)c(C(N)=O)c2N)C1 (centres unmarked) [Example 77, 5-amino-1-(1-cyanopiperidin-3-yl)-3-[4-(3-fluorobenzyl)phenyl]-1H-pyrazole-4-carboxamide] | 2.3
N#CN1CCCC(n2nc(-c3ccc(Cc4ccccc4)cc3)c(C(N)=O)c2N)C1 (centres unmarked) [Example 67] | 2.4
N#CN1CCCC(n2nc(-c3ccc(Cc4ccccc4Cl)cc3)c(C(N)=O)c2N)C1 (centres unmarked) [Example 71, 5-amino-3-(4-(2-chlorobenzyl)phenyl)-1-(1-cyanopiperidin-3-yl)-1H-pyrazole-4-carboxamide] | 2.7
CC(C)c1ccccc1Oc1cccc(-c2nn(C3CCCN(C#N)C3)c(N)c2C(N)=O)c1 (centres unmarked) [Example 97, 5-amino-1-(1-cyanopiperidin-3-yl)-3-[3-(2-isopropylphenoxy)phenyl]-1H-pyrazole-4-carboxamide] | 52.8
Cc1ccc(Oc2ccc(-c3nn(C4CCCN(C#N)C4)c(N)c3C(N)=O)cc2)cc1C (single isomer, unassigned) [Example 18] | 3
N#CN1CCCC(n2nc(-c3ccc(Oc4ccc(Cl)cc4)cc3)c(C(N)=O)c2N)C1 (centres unmarked) [Example 13, 5-amino-3-[4-(4-chlorophenoxy)phenyl]-1-(1-cyanopiperidin-3-yl)-1H-pyrazole-4-carboxamide] | 2.6

target: human EGFR kinase domain (Homo sapiens (Human), UniProt P00533); assay: Human EGFR LanthaScreen Selectivity Assay (TR-FRET); type: biochemical; conditions: 20 μM ATP
Sequence (P00533 712-979): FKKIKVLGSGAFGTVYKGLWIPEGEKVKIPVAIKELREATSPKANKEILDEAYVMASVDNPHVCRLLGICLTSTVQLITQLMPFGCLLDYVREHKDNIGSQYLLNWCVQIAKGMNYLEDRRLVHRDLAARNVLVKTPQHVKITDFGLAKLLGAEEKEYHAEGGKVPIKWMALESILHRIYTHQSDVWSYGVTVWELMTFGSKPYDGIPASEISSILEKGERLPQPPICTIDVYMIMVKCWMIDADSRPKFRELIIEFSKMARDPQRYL
Procedure: The kinase reaction mixtures were incubated at room temperature for 60 minutes before stopping the kinase activity by the addition of 15 mM EDTA. The extent of peptide phosphorylation by EGFR was detected using a Terbium-conjugated anti-phospho-Tyrosine antibody (Tb-PT66 antibody, invitrogen # PV3557).

SMILES | IC50 [nM]
NC(=O)c1c(-c2ccc(Oc3ccc(Cl)cn3)cc2)nn(C2CCCN(C(=O)/C=C/CF)C2)c1N (centres unmarked) [Example 160] | 890

system: Human B cells; assay: Human Primary B Cell Proliferation Assay (3H-thymidine incorporation, anti-human IgM stimulated); type: cell-based; conditions: B-cell, purified human B cells, 50 μg/mL anti-human IgM F(ab')2, 72 hours
Procedure: Human Primary B Cell Proliferation Assay
Human B cells were purified from buffy coats using the human B cell RosetteSep kit per manufacturer's instructions. Purified cells were resuspended in RPMI-10% HIFCS, 2 mM L-glutamine, 100 U/mL penicillin, 100 μg/ml streptomycin, incubated with compounds for 1 hour at 37° C. and then stimulated with 50 μg/mL anti-human IgM F(ab′)2 for 72 hours. ^3H-thymidine was included in the culture media for the final 8-16 hours. Cells were harvested and ^3H-thymidine incorporation was measured.
Human B cell Proliferation Assay

SMILES | IC50 [nM]
NC(=O)c1c(-c2ccc(Oc3ccc(Cl)cn3)cc2)nn(C2CCCN(C(=O)/C=C/CF)C2)c1N (centres unmarked) [Example 160] | 2.9
NC(=O)c1c(-c2ccc(Oc3cccc(C(F)(F)F)n3)cc2)nn([C@@H]2CCCN(C(=O)/C=C/C(F)F)C2)c1N [Example 163, 5-amino-1-{(3R)-1-[(2E)-4,4-difluorobut-2-enoyl]piperidin-3-yl}-3-(4-{[6-(trifluoromethyl)pyridin-2-yl]oxy}phenyl)-1H-pyrazole-4-carboxamide] | 0.92
C=CC(=O)N1CCC[C@@H](n2nc(-c3ccc(Oc4ncc(Cl)cc4F)cc3)c(C(N)=O)c2N)C1 [Example 153, 1-[(3R)-1-acryloylpiperidin-3-yl]-5-amino-3-{4-[(5-chloro-3-fluoropyridin-2-yl)oxy]phenyl}-1H-pyrazole-4-carboxamide] | 0.56
NC(=O)c1c(-c2ccc(Oc3ccc(F)cc3F)cc2)nn([C@@H]2CCCN(C(=O)/C=C/C(F)F)C2)c1N [Example 144, 5-amino-1-{(3R)-1-[(2E)-4,4-difluorobut-2-enoyl]piperidin-3-yl}-3-[4-(2,4-difluorophenoxy)phenyl]-1H-pyrazole-4-carboxamide] | 0.84
